For series [1], the system named is D. rerio embryos. Briefly: D. rerio embryotoxicity assay, direct application of ring-open photoform. Particulars: direct application of 1 or ring-open photoform, zebrafish embryos at 3 dpf, final DMSO 0.2%, ambient light, value ± STD; for LD50 (open)^1h: 1 h incubation, 12–15 or 18–20 embryos; for LD50 (open)^3h: 3 h incubation; for LD50 (open)^24h: 24 h incubation. The class given is in vivo, Danio rerio. Here is the method:
(§1) To establish the assay for screening the photoswitchable peptides, we first studied the toxicity of our prototype 2 by varying the assay conditions. The parent peptide GS 1 was used as a control. […] We measured the doses causing the death of 50% embryos (LD50). We tested two different assay variations: in one version, the LD50(open) was determined after direct application of 1 or of the ring-open form of 2. In the other variant, the photoswitchable peptide was applied in the ring-closed photoform in the darkness, its LD50(closed) was recorded, and then in situ illumination (“photoactivation”) was applied to switch into the ring-open photoform and obtain the respective LD50(opened) values (see Figure 2 for the study design and the killing curves).
(§2) Figure 2 Two versions of the D. rerio embryotoxicity assay for DAE-modified peptides: timelines, peptide photostates, ages of larvae, and definitions of the measured characteristics. (A) Direct application of the non-photoswitchable parent GS 1 or of the ring-open photoform of our prototype 2, and the corresponding killing curves for 1 (C, top, black) and 2 (C, bottom, red). (B) “Photoactivation” assay: initial application of the ring-closed photoform, incubation in darkness, followed by in situ photoconversion into the ring-open(ed) photoform, with the corresponding killing curves for 1 (D, top) and 2 (D, bottom, green for ring-closed, red for ring-open isomers). The latter panel illustrates the “phototherapeutic safety window” (green arrow) as the difference in toxicity between the ring-closed and the ring-open isomers upon photoactivation.
(§3) Each time, 12–15 or 18–20 zebrafish embryos at 3 dpf were treated by applying the corresponding peptide dissolved in dimethyl sulfoxide (final dimethyl sulfoxide concentration was 0.2%). Double-concentrated peptide stock solutions (64–512 µg/mL) were prepared by weighing lyophilized peptides, dissolving in 10% dimethyl sulfoxide and constructing two-fold dilution series with ten–eleven dilution steps. In the photoconversion experiments, in order to prevent spontaneous photoswitching of the ring-closed peptides by vis light, zebrafish embryos and peptides were kept in the dark before the first readout, and the vials were sealed to avoid evaporation of the embryonic medium (E3) at prolonged incubation times. After the first screen, without exchanging any solution, the vials with embryos and ring-closed photoforms were exposed to intense illumination for 10 min (LUMATEC Superlite 410 light source, λ = 570 nm, irradiance approximately 20 mW/cm^2). Mortality was then determined under ambient light conditions at 1 h and 24 h after the illumination procedure.

Series [2] is described as follows: observed water solubility and aggregation. It is filed as physicochemical. Particulars: ring-open form; observation in words. From the text:
We have also analyzed the correlation between the empirical low-pH hydrophobicity of the peptides (as assessed from the retention times in reversed-phase HPLC) and toxicity against zebrafish embryos. Independent on the photoisomeric state and the type of toxicity assay, decreasing polarity of the peptides is accompanied by an increase in toxicity against zebrafish embryos (compare Figure 3A and 3B). Within the different series of peptides (the series are marked with different colors in Figure 3 for clarity) we get almost linear toxicity–hydrophobicity correlations in most cases, and all the outliers are readily explainable.

The subject of series [3] is D. rerio embryos. Briefly: D. rerio embryotoxicity "photoactivation" assay (ring-closed photoform in darkness, then in situ photoconversion). Particulars: for LD50 (opened)^1h / LD50 (opened)^24h: after 24 h with ring-closed form in dark, in situ illumination 10 min, λ = 570 nm, approx. 20 mW/cm^2; for LD50 (opened)^1h: mortality 1 h after illumination, embryos 4 dpf; for LD50 (opened)^1h / LD50 (opened)^24h / LD50 (closed)^24h: value ± STD; for LD50 (opened)^24h: mortality 24 h after illumination, embryos 5 dpf at readout; for LD50(closed)^24h/LD50(open)^24h ratio: phototherapeutic safety window, ring-closed 24 h LD50 (dark) divided by ring-open 24 h LD50 (direct application); for LD50 (closed)^24h: ring-closed photoform applied to embryos at 3 dpf, 24 h in the dark, sealed vials, E3 medium, 0.2% DMSO. It is filed as in vivo, Danio rerio. Here is the method:
as §1, §2, §3

Starred links: 1 amine or outer side, 2 acyl side, 3 side chain; linkers in the order of their positions; H or OH if unused. Positions of bridges follow the written chain, without caps; N, C: chain ends. Non-standard residues stand in square brackets, D forms with d. Residues, ends and D or L forms follow the SMILES beside them. X2 = Cc1sc(C(=O)[C@@H]2CCCN2[*:2])cc1C1=C(c2cc(C(=O)[*:1])sc2C)CCC1; X1 = CCCCN([C@@H](CC(C)C)C(=O)[*:2])[*:1]; Orn = NCCC[C@H](N)C(=O)O

With `CCCCN1C(=O)[C@@H](Cc2ccccc2)NC(=O)[C@H](CC(C)C)NC(=O)[C@H](CCCN)NC(=O)[C@H]([C@@H](C)CC)NC(=O)c2cc(c(C)s2)C2=C(CCC2)c2cc(sc2C)C(=O)[C@@H]2CCCN2C(=O)[C@H](CC(C)C)NC(=O)[C@H](CCCN)NC(=O)[C@H]([C@@H](C)CC)NC(=O)[C@@H]1CC(C)C` [Peptide 11] (I[Orn]L[dF][X1]I[Orn]L; linker N-C via X2), in series [1], the “LD50 (open)^1h” value was found to be 3.0 ± 1.8 µg/mL, the “LD50 (open)^3h” value was found to be 2.4 ± 0.7 µg/mL and the “LD50 (open)^24h” value is recorded as 1.6 ± 0.1 µg/mL. Also, in series [2], the “water solubility and aggregation” value is “very low water solubility and tendency to aggregate”. For the same molecule, in series [3], the “LD50 (opened)^1h” value is 4.0 ± 0.3 µg/mL, the “LD50 (opened)^24h” value was determined as 3.0 ± 1.0 µg/mL, the “LD50(closed)^24h/LD50(open)^24h ratio” value is 2.8 and the “LD50 (closed)^24h” value came to 4.4 ± 0.2 µg/mL.
With `Cc1sc2cc1C1=C(CCC1)c1cc(sc1C)C(=O)[C@@H]1CCCN1C(=O)[C@H](C(C)C)NC(=O)[C@H](CCCCN)NC(=O)[C@H](C(C)C)NC(=O)[C@H](CC(C)C)NC(=O)[C@H](CCCCN)NC(=O)[C@@H]1CCCN1C(=O)[C@@H](Cc1ccccc1)NC(=O)[C@H](C(C)C)NC(=O)[C@H](CCCCN)NC(=O)[C@H](CC(C)C)NC(=O)[C@H](CCCCN)NC(=O)[C@H](C(C)C)NC2=O` [Peptide 18] (VKLKV[dF]PKLVKV; linker N-C via X2), in series [1], the “LD50 (open)^1h” value stood at 0.9 ± 0.4 µg/mL, the “LD50 (open)^3h” value stood at 0.9 ± 0.4 µg/mL and the “LD50 (open)^24h” value amounted to 0.4 ± 0.2 µg/mL. Besides, in series [3], the “LD50 (opened)^1h” value amounted to 12.3 ± 1.5 µg/mL, the “LD50 (opened)^24h” value stood at 12.3 ± 1.5 µg/mL, the “LD50(closed)^24h/LD50(open)^24h ratio” value was determined as 30.8 and the “LD50 (closed)^24h” value was determined as 12.3 ± 1.5 µg/mL.
Consider “DAE-OrnN3-OLfPVOL (bicyclic or more) [Peptide 20, "click"-chemistry connected homodimer of DAE-modified macrocycle (series v)]”, for which, in series [1], the “LD50 (open)^1h” value is given as 3.7 ± 1.9 µg/mL, the “LD50 (open)^3h” value amounted to 3.7 ± 1.9 µg/mL and the “LD50 (open)^24h” value was found to be 1.5 ± 0.0 µg/mL. Also, in series [3], the “LD50 (opened)^1h” value is on record as 8.4 ± 3.3 µg/mL, the “LD50 (opened)^24h” value was determined as 3.5 ± 0.6 µg/mL, the “LD50(closed)^24h/LD50(open)^24h ratio” value worked out at 7.1 and the “LD50 (closed)^24h” value turned out to be 10.7 ± 0.1 µg/mL.

These data come from publication PMC6964649, “Light-controllable dithienylethene-modified cyclic peptides: photoswitching the in vivo toxicity in zebrafish embryos” (Beilstein Journal of Organic Chemistry, 2020).
